In ChEMBL document CHEMBL1139096, “HeLa cells apoptosis induced by 1,7-dimethyl-1,4,7,10-tetraazacyclododecane” (2007):
The source made the active and inactive calls. No cut-off for these calls is given here.

Legend:
[1] = system: HeLa; experiment: Induction of apoptosis in human HeLa cells assessed as DNA fragmentation at 200 umol/L by electrophoresis; type: functional, cell-based
[2] = system: HeLa; experiment: Induction of apoptosis in human HeLa cells at 300 umol/L by flow cytometry; type: functional
[3] = system: HeLa; experiment: Cell cycle arrest in human HeLa cells assessed as accumulation at G2/M phase at 200 umol/L after 72 hrs; type: functional
[4] = system: A549; experiment: Growth inhibition of human A549 cells at 0.1 uM by MTT assay; type: functional; settings: read-out: GI
[5] = system: A549; experiment: Growth inhibition of human A549 cells at 1 uM by MTT assay; type: functional; settings: read-out: GI
[6] = system: A549; experiment: Growth inhibition of human A549 cells at 0.1 mM by MTT assay; type: functional; settings: read-out: GI
[7] = system: HeLa; experiment: Growth inhibition of human HeLa cells at 10 uM by MTT assay; type: functional; settings: read-out: GI
[8] = system: HeLa; experiment: Cell cycle arrest in human HeLa cells assessed as accumulation at S phase at 50 umol/L after 72 hrs; type: functional
[9] = system: HeLa; experiment: Induction of apoptosis in human HeLa cells assessed as morphological changes at 200 umol/L; type: functional, cell-based
[10] = system: HeLa; experiment: Cell cycle arrest in human HeLa cells assessed as accumulation at G0-G1 phase at 50 umol/L after 72 hrs; type: functional
[11] = system: HeLa; experiment: Growth inhibition of human HeLa cells at 0.1 uM by MTT assay; type: functional
[12] = system: HeLa; experiment: Growth inhibition of human HeLa cells at 1 uM by MTT assay; type: functional; settings: read-out: GI
[13] = system: HeLa; experiment: Cell cycle arrest in human HeLa cells assessed as accumulation at S phase at 300 umol/L after 72 hrs; type: functional
[14] = system: A549; experiment: Induction of apoptosis in human A549 cells at 200 umol/L by flow cytometry; type: functional
[15] = system: A549; experiment: Growth inhibition of human A549 cells at 10 uM by MTT assay; type: functional; settings: read-out: GI
[16] = system: HeLa; experiment: Induction of apoptosis in human HeLa cells assessed as morphological changes at 50 umol/L; type: functional, cell-based
[17] = system: HeLa; experiment: Induction of apoptosis in human HeLa cells assessed as morphological changes at 100 umol/L; type: functional, cell-based
[18] = system: HeLa; experiment: Growth inhibition of human HeLa cells at 0.1 mM by MTT assay; type: functional; settings: read-out: GI
[19] = system: HeLa; experiment: Cell cycle arrest in human HeLa cells assessed as accumulation at G0-G1 phase at 300 umol/L after 72 hrs; type: functional
[20] = system: HeLa; experiment: Cell cycle arrest in human HeLa cells assessed as accumulation at G2/M phase at 300 umol/L after 72 hrs; type: functional

## CN1CCNCCN(C)CCNCC1
[1]
  Activity: Active
[2]
  Activity: 55%
[3]
  Activity: 25.2%
[4]
  inhibition of growth at 0.1 µM: 11%
[5]
  inhibition of growth at 1 µM: 13.7%
[6]
  inhibition of growth at 100 µM: 53.6%
[7]
  inhibition of growth at 10 µM: 17.7%
[8]
  Activity: 33.3%
[9]
  Activity: Active
[10]
  Activity: 60.5%
[11]
  growth inhibition (GI): 9%
[12]
  inhibition of growth at 1 µM: 9.8%
[13]
  Activity: 0%
[14]
  Activity: 7%
[15]
  inhibition of growth at 10 µM: 22.4%
[16]
  Activity: inactive
[17]
  Activity: Active
[18]
  inhibition of growth at 100 µM: 63.1%
[19]
  Activity: 84.7%
[20]
  Activity: 15.3%
